Measured values as given in ChEMBL document CHEMBL1909046, “DrugMatrix in vitro pharmacology data”.

What was measured:
[1] = DRUGMATRIX: Glutamate, AMPA radioligand binding (ligand: [3H] AMPA); type: cell membranes, Rattus norvegicus, Wistar, Cerebral cortex, Membrane; details: Not Active = under 50% inhibition at 10 µM
[2] = molecular target: T1, Alpha-1B adrenergic receptor (Rattus norvegicus, UniProt P15823); assay: DRUGMATRIX: Alpha-1B adrenergic receptor radioligand binding (ligand: prazosin); type: cell membranes, Wistar, Liver, Membrane; details: Not Active = under 50% inhibition at 10 µM
T1 sequence (P15823 whole entry): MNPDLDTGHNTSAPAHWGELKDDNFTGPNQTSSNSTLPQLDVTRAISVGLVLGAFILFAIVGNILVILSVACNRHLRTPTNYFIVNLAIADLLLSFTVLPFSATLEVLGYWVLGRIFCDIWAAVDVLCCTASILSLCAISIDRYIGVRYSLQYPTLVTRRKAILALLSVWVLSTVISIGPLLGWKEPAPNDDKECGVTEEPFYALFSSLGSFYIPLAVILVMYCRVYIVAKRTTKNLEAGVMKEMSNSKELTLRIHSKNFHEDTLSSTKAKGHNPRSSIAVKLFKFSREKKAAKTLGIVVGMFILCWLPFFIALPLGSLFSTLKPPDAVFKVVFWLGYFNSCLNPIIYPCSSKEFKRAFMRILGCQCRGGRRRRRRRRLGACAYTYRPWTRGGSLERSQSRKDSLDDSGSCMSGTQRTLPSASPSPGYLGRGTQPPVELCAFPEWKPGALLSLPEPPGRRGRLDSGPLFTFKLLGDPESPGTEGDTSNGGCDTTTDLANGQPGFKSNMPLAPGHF

[3] = DRUGMATRIX: Sodium/nucleoside co-transporter radioligand binding (ligand: nitrobenzylthioinosine); type: cell membranes, Cavia porcellus, Dunkin-Hartley, Cerebral cortex, Membrane; details: Not Active = under 50% inhibition at 10 µM
[4] = DRUGMATRIX: Glutamate, NMDA, Agonism radioligand binding (ligand: [3H] CGP-39653); type: cell membranes, Rattus norvegicus, Wistar, Cerebral cortex, Membrane; details: Not Active = under 50% inhibition at 10 µM
[5] = DRUGMATRIX: Serotonin (5-Hydroxytryptamine) 5-HT3 radioligand binding (ligand: [3H] GR-65630); type: cell membranes, Membrane; details: hek293; Not Active = under 50% inhibition at 10 µM
[6] = DRUGMATRIX: Phorbol Ester radioligand binding (ligand: [3H] PDBu); type: cell membranes, Mus musculus, ICR, Brain, Membrane; details: Not Active = under 50% inhibition at 10 µM
Estrogen receptor = molecular target: T2, Estrogen receptor (Homo sapiens, UniProt P03372); details: sf9; also: in other assays of this panel Not Active means under 50% inhibition at 10 µM
T2 sequence (P03372 whole entry): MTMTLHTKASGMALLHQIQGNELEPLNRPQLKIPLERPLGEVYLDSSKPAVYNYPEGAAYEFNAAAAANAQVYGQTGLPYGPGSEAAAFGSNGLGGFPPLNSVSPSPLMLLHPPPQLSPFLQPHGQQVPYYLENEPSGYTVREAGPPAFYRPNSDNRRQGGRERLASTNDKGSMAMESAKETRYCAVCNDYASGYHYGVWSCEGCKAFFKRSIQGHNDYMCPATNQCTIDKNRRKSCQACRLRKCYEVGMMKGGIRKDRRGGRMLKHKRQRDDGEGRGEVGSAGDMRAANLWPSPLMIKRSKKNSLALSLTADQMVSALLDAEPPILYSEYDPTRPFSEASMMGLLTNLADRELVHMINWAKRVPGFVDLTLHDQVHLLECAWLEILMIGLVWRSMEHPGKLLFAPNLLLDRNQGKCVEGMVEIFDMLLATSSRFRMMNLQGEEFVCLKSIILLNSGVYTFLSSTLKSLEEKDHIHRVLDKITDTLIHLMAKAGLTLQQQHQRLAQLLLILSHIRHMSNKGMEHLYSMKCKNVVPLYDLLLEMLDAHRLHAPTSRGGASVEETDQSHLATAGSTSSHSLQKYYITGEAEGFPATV

[7] = DRUGMATRIX: Interleukin IL-1 radioligand binding (ligand: [125I] interleukin 1beta); type: cell membranes, Membrane; details: nih3t3; Not Active = under 50% inhibition at 10 µM
[8] = DRUGMATRIX: Potassium Channel [KATP] radioligand binding (ligand: [3H] Glyburide); type: cell membranes, Membrane; details: hit-t15; Not Active = under 50% inhibition at 10 µM

C[N+](C)(C)CCOC(=O)CCC(=O)OCC[N+](C)(C)C.[Cl-].[Cl-] [SUCCINYLCHOLINE CHLORIDE]
Not Active: IC50 [1] | Ki [1] | IC50 [2] | IC50 [3] | Ki [3] | IC50 [4] | Ki [4] | IC50 [5] | Ki [5] | IC50 [6] | Ki [6] | IC50 (Estrogen receptor) | IC50 [7] | Ki [7] | IC50 [8] | Ki [8]

Nc1ccc(S(=O)(=O)NC(=O)c2ccccc2)cc1 [SULFABENZAMIDE]
Not Active: IC50 [1] | Ki [1] | IC50 [2] | IC50 [3] | Ki [3] | IC50 [4] | Ki [4] | IC50 [5] | Ki [5] | IC50 [6] | Ki [6] | IC50 (Estrogen receptor) | IC50 [7] | Ki [7] | IC50 [8] | Ki [8]

Cc1ccc(C(=O)c2ccc(CC(=O)O)n2C)cc1 [TOLMETIN]
Not Active: IC50 [1] | Ki [1] | IC50 [2] | IC50 [3] | Ki [3] | IC50 [4] | Ki [4] | IC50 [5] | Ki [5] | IC50 [6] | Ki [6] | IC50 (Estrogen receptor) | IC50 [7] | Ki [7] | IC50 [8] | Ki [8]

TRANSPLATIN
Not Active: IC50 [1] | Ki [1] | IC50 [2] | Ki [2] | IC50 [3] | Ki [3] | IC50 [4] | Ki [4] | IC50 [5] | Ki [5] | IC50 [6] | Ki [6] | IC50 (Estrogen receptor) | Ki (Estrogen receptor) | IC50 [7] | Ki [7] | IC50 [8] | Ki [8]

ZIRCONIUM(IV) CHLORIDE
Not Active: IC50 [1] | Ki [1] | IC50 [2] | Ki [2] | IC50 [3] | Ki [3] | IC50 [4] | Ki [4] | IC50 [5] | Ki [5] | IC50 [6] | Ki [6] | IC50 (Estrogen receptor) | Ki (Estrogen receptor) | IC50 [7] | Ki [7] | IC50 [8] | Ki [8]
